Earlier results in patent publication EP4616878A1, “CANNULA FOR RECTAL ADMINISTRATION OF AN ENEMA AND COMPOSITIONS FOR USE THEREWITH” (Cosmo Technologies Ltd., priority 2024, dated 2025).

How the values were obtained:
[1] = target: T1, pregnane X receptor (PXR) (Homo sapiens, UniProt O75469); conditions: liver and intestinal cell lines; also downstream targets CYP3A4 and PgP
T1 sequence (O75469 1-434): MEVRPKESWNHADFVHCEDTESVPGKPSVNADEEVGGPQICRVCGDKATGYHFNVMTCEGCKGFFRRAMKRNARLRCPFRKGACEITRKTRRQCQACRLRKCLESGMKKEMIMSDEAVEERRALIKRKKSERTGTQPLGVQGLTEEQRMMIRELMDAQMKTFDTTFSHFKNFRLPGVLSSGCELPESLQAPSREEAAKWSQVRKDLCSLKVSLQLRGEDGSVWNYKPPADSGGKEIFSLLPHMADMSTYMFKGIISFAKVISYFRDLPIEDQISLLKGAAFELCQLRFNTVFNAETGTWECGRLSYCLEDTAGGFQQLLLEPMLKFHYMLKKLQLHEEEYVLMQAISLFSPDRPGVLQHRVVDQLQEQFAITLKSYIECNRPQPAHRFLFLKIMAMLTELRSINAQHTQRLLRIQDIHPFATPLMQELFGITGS

nuclear factor-KB (NFκB) = conditions: cell line which lacks PXR expression
[2] = in vivo

SMILES: CO[C@H]1/C=C/O[C@@]2(C)Oc3c(C)c(O)c4c(O)c(cc(O)c4c3C2=O)NC(=O)/C(C)=C\C=C\[C@H](C)[C@H](O)[C@@H](C)[C@@H](O)[C@@H](C)[C@H](OC(C)=O)[C@@H]1C [Rifamycin, Rifamycin SV]
- effect on PXR [1]: activate
- effect on NFκB (nuclear factor-KB (NFκB)): directly inhibited
- absorption in the bloodstream [2]: negligible
